Assay results as given in ChEMBL document CHEMBL5543086, “Discovery of novel NSAID hybrids as cPLA2/COX-2 dual inhibitors alleviating rheumatoid arthritis via inhibiting p38 MAPK pathway” (Eur J Med Chem, 2024).
Activity calls are given as the source filed them.

Tests used:
[1] = system: RAW264.7; test: Cytotoxicity against LPS-induced mouse RAW264.7 cells assessed as reduction in cell viability at 30 uM pretreated for 1 hr followed by LPS addition and measured after 24 hrs by MTT assay; type: toxicity, cell-based; details: raw264.7, 25 h
[2] = system: RAW264.7; test: Antiinflammatory activity in LPS-induced mouse RAW264.7 cells assessed as inhibition of PGE2 production at 10 uM pretreated for 1 hr followed by LPS stimulation and measured after 24 to 48 hrs by ELISA; type: functional, cell-based; details: time 25-49 hrs
[3] = target: T1, Prostaglandin G/H synthase 2 (Mus musculus) (UniProt Q05769); test: Binding affinity to COX-2 in LPS-induced mouse RAW264.7 cells assessed as thermal stability at 30 uM pretreated with LPS for 24 hrs followed by compound addition and measured after 2 hrs by CETSA; type: cell-based
T1 sequence (whole entry): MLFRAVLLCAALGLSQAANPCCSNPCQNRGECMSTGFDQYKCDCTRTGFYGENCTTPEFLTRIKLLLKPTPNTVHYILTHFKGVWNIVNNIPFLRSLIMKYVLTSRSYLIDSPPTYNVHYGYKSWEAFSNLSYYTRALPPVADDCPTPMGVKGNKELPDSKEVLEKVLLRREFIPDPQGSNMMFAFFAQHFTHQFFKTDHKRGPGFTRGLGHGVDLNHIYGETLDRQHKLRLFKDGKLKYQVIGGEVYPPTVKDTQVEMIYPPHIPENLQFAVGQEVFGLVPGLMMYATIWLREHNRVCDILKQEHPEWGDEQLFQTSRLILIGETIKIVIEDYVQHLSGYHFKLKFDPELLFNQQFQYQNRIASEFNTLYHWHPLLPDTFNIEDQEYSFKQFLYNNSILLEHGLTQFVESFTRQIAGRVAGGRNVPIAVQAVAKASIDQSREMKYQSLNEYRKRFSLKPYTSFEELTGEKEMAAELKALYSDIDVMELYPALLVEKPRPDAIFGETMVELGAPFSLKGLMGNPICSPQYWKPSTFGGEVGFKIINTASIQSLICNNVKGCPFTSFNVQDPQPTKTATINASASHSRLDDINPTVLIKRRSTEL

[4] = system: Rattus norvegicus; test: Antiarthritic activity in Freund's complete adjuvant induced Lewis rat model of arthritis assessed as inhibition of left hind paw edema at 20 mg/kg, po administered every 24 to 48 hrs for 28 days post immunization starting from day 8 post immunization; type: functional, organism-based; details: time 21.0 day
[5] = Toxicity in Lewis rat model of Freund's complete adjuvant induced arthritis assessed as effect on growth by measuring reduction in body weight at 20 mg/kg, po administered every 24 to 48 hrs for 28 days post immunization starting from day 8 post immunization; type: organism-based; details: in vivo, 504 h, time 21 day
[6] = system: Rattus norvegicus; test: Analgesic activity in Freund's complete adjuvant induced Lewis rat model of arthritis assessed as increase in mechanical paw withdrawal threshold at 20 mg/kg, po administered every 24 to 48 hrs for 28 days post immunization starting from day 8 post immunization; type: functional, organism-based; details: time 21.0 day
[7] = system: Rattus norvegicus; test: Antiarthritic activity in Freund's complete adjuvant induced Lewis rat model of arthritis assessed as modulation of immune system responses by measuring reduction in spleen weight at 20 mg/kg, po administered every 24 to 48 hrs for 28 days post immunization starting from day 8 post immunization; type: functional, organism-based; details: time 21.0 day
[8] = system: Rattus norvegicus; test: (§1) Antiarthritic activity in Freund's complete adjuvant induced Lewis rat model of arthritis assessed as reduction in TNFalpha level in serum at 20 mg/kg, po administered every 24 to 48 hrs for 28 days post immunization starting from day 8 post immunization by ELISA; type: functional, organism-based; details: time 21.0 day
[9] = system: Rattus norvegicus; test: Antiarthritic activity in Freund's complete adjuvant induced Lewis rat model of arthritis assessed as reduction in IL-6 level in serum at 20 mg/kg, po administered every 24 to 48 hrs for 28 days post immunization starting from day 8 post immunization by ELISA; type: functional, organism-based; details: time 21.0 day
[10] = system: Rattus norvegicus; test: (§2) Immunomodulatory activity in Freund's complete adjuvant induced Lewis rat model of arthritis assessed as reduction in IL-17 level in serum at 20 mg/kg, po administered every 24 to 48 hrs for 28 days post immunization starting from day 8 post immunization by ELISA; type: functional, organism-based; details: time 21.0 day
[11] = system: Rattus norvegicus; test: Immunomodulatory activity in Freund's complete adjuvant induced Lewis rat model of arthritis assessed as increase in CD4positive CD25positive Treg cells in spleen at 20 mg/kg, po administered every 24 hrs for 28 days post immunization starting from day 8 post immunization by flow cytometry analysis; type: functional, organism-based; details: time 21.0 day
[12] = system: Rattus norvegicus; test: as §2, with “increase” for “reduction”, “anti-IL-10 antibody expression” for “IL-17 level”, “knee joint slices” for “serum”, “immunohistochemistry analysis” for “ELISA”; type: functional, organism-based; details: time 21.0 day
[13] = system: Rattus norvegicus; test: as §1, with “joint tissue damage by measuring reduction” for “TNFalpha level”, “synovial hyperplasia” for “serum”, “24” for “24 to 48”, “H and E staining based analysis” for “ELISA”; type: functional, organism-based; details: time 21.0 day
[14] = system: Rattus norvegicus; test: Antiarthritic activity in Freund's complete adjuvant induced Lewis rat model of arthritis assessed as reduction in RORgammat protein expression at 20 mg/kg, po administered every 24 to 48 hrs for 28 days post immunization starting from day 8 post immunization by Western blot analysis; type: functional, organism-based; details: time 21.0 day
[15] = Toxicity in male Wistar rat assessed as gastrointestinal damage by measuring level-1 ulcers with <1 mm area at 100 mg/kg administered by gavage and measured after 6 hrs; type: organism-based; details: in vivo, po
[16] = Toxicity in male Wistar rat assessed as gastrointestinal damage by measuring level-2 ulcers with 1 to 3 mm area at 50 mg/kg administered by gavage and measured after 6 hrs; type: organism-based; details: in vivo, po
[17] = Toxicity in male Wistar rat assessed as gastrointestinal damage by measuring level-2 ulcers with 1 to 3 mm area at 100 mg/kg administered by gavage and measured after 6 hrs; type: organism-based; details: in vivo, po
[18] = Toxicity in male Wistar rat assessed as gastrointestinal damage by measuring level-3 ulcers with >3 mm area at 50 mg/kg administered by gavage and measured after 6 hrs; type: organism-based; details: in vivo, po
[19] = Toxicity in male Wistar rat assessed as gastrointestinal damage by measuring ulcer index at 50 mg/kg administered by gavage and measured after 6 hrs; type: organism-based; details: in vivo, po
[20] = Toxicity in male Wistar rat assessed as gastrointestinal damage by measuring ulcer index at 100 mg/kg administered by gavage and measured after 6 hrs; type: organism-based; details: in vivo, po
[21] = Hepatotoxicity in male Wistar rat assessed as effect on glutamic oxalacetic transaminase level at 20 mg/kg, po administered for 3 days; type: toxicity, organism-based; details: in vivo, 72 h, time 3 day

CCCCC/C=C\C/C=C\C/C=C\C/C=C\CC/C=C(/OC(=O)C(C)c1ccc(C(=O)c2ccccc2)cc1)C(F)(F)F (stereo unspecified)
0%: Activity [16] | Activity [18]
Non-Toxic: Activity [1] | Activity [5] | Activity [21]
active: Activity [2] | Activity [3] | Activity [4] | Activity [6] | Activity [7] | Activity [8] | Activity [9] | Activity [10] | Activity [11] | Activity [12] | Activity [13] | Activity [14]
0: UI [19]
14%: Activity [17]
86%: Activity [15]
8: UI [20]
